Measurements from patent US20240382564A1, “Methods and Compositions for Treating Muscular Dystrophy and Memory Impairment” (Allysta Pharmaceuticals, Inc., priority 2023, published 2024).
Entries after “also recorded” stand apart in the source; their conditions may differ. Where no end group is shown, it is not given here. [ ]: non-standard residue; d: D form. Nva = CCC[C@H](N)C(=O)O

Assays:
[1] = system: D2.mdx mice; assay: Hippocampal western blotting; format: in vivo, mouse; details: hippocampus
Procedure: Male D2.mdx mice originated from a colony maintained at York University (Toronto, Canada) and sourced from Jackson Laboratories (Stock Number 013141, Bar Harbor, United States). Mice were treated daily from days 7 to 28 of age with ALY688 at 15 mg/kg b.w. (D2.mdx-ALY688) or saline control (D2.mdx-VEH). This age was chosen given it captures an early stage of disease progression in cardiac and skeletal muscle. Mice were sacrificed 20-24 hr after the last dose. Breeding of wildtype mice was unsuccessful. Instead, three-week-old wildtype DBA/2J WT mice (D2A) were obtained from Jackson Laboratories (Stock number 000671, Bar Harbor, United States) and allowed to acclimatize for one week before sacrifice. Mice were housed in standard 12:12-hr light:dark cycles and were allowed access to standard rodent chow and water ad libitum. 4 days prior to sacrifice, all groups underwent novel object recognition acclimatization and testing as described below. Mice were anesthetized under 5% isoflurane vaporized in medical air (21% oxygen) at a flow rate of 2 L/min and then maintained at 2-3% prior to euthanasia by exsanguination. Muscles were removed and used for another investigation (under review at the time of this submission). The right and left hippocampus were then quickly dissected from the brain with a portion placed immediately into ice-cold BIOPS, containing (in mM): 50 MES Hydrate, 7.23 K2EGTA, 2.77 CaK2EGTA, 20 imidazole, 0.5 dithiothreitol, 20 taurine, 5.77 ATP, 15 PCr, and 6.56 MgCl2·6H2O (pH 7.1) or flash-frozen in liquid nitrogen and stored at −80° C. for RNA isolation and western blotting. All experiments and procedures were approved by the Animal Care Committee at York University (AUP Approval Number 2016-18) in accordance with the Canadian Council on Animal Care.
Hippocampus tissue (collected from the same mice utilized in high-resolution respirometry experiments) was homogenized in cold lysis buffer containing (in mM; 20 Tris/HCl, 150 NaCl, 1 EDTA, 1 EGTA, 1% Triton X-100, 2.5 Na4O7P2, 1 Na3VO4, pH 7.0) supplemented with protease and phosphatase inhibitors (Sigma) according to the protocol established in Hughes MC et al. “Early myopathy in Duchenne muscular dystrophy is associated with elevated mitochondrial H2O2 emission during impaired oxidative phosphorylation.” Journal of Cachexia, Sarcopenia and Muscle. 2019; 10:643-61. […] For detection of total AMPK, p-AMPK, p-ULK1, p62, and LC3BII/I, proteins were transferred to a 0.2 μm low fluorescence polyvinylidene difluoride membrane using a Bio-Rad Trans Blot Turbo. […] The same washing protocol was repeated and then membranes were detected using infrared imaging (LI-COR CLx; LI-COR, Lincoln, NE, USA) and quantified by densitometry (ImageJ, http://imagej.nih.gov/ij/). […]

[2] = system: D2.mdx mice; assay: Hippocampal high-resolution respirometry; format: in vivo, mouse; details: 15 mg/kg daily; 15 μM ADP
Procedure: Male D2.mdx mice originated from a colony maintained at York University (Toronto, Canada) and sourced from Jackson Laboratories (Stock Number 013141, Bar Harbor, United States). Mice were treated daily from days 7 to 28 of age with ALY688 at 15 mg/kg b.w. (D2.mdx-ALY688) or saline control (D2.mdx-VEH). This age was chosen given it captures an early stage of disease progression in cardiac and skeletal muscle. Mice were sacrificed 20-24 hr after the last dose. Breeding of wildtype mice was unsuccessful. Instead, three-week-old wildtype DBA/2J WT mice (D2A) were obtained from Jackson Laboratories (Stock number 000671, Bar Harbor, United States) and allowed to acclimatize for one week before sacrifice. Mice were housed in standard 12:12-hr light:dark cycles and were allowed access to standard rodent chow and water ad libitum. 4 days prior to sacrifice, all groups underwent novel object recognition acclimatization and testing as described below. Mice were anesthetized under 5% isoflurane vaporized in medical air (21% oxygen) at a flow rate of 2 L/min and then maintained at 2-3% prior to euthanasia by exsanguination. […]
Mitochondrial oxygen consumption (respiration) was measured using the in situ brain permeabilization. […] Polarographic oxygen measurements were acquired in 2 s intervals with the rate of respiration derived from 40 data points and expressed as pmol/s/mg wet weight. […]

Q: What does the source list for [dN]IP[Nva]LY[dS]FA[dS]-NH2 [ALY688]?
A: degree of AMPK activation (p-AMPK or p-AMPK/AMPK) [1]: not altered; total AMPK protein [1]: lower; protein content of total raptor ([1]; increased in D2.mdx vs WT): completely prevented the increases; protein content of total tau ([1]; increased in D2.mdx vs WT): completely prevented the increases; hippocampal pyruvate-supported respiration stimulated by ADP [2]: completely preserved; also recorded: complete restoration
